The source of these data is patent US20160052926A1, “NOVEL PYRIMIDINE AND PYRIDINE COMPOUNDS AND USAGE THEREOF” (HUTCHISON MEDIPHARMA LIMITED, priority 2013, published 2016).

What is called IC50 is the point on the concentration scale where inhibition reaches its midpoint.

The target of one assay is Recombinant human FGFR1 (Homo sapiens, UniProt P11362). Kind of assay: Transcreener Kinase Assay of FGFR1. In kind it is biochemical. To be noted: read-out: FGFR1 (FP) IC50. As to the method: Transcreener Kinase Assay of FGFR1
(§1) Prepare Solution • Compounds were solved in DMSO and were diluted with assay buffer to 5 folds of final concentration keeping the DMSO concentration at 5%. Further dilution are needed to make final concentrations are at 1, 0.33, 0.11, 0.037, 0.012, 0.004, 0.0014, 0.0005 μM; (the final concentration of DMSO is 1%). • Enzyme/Substrate stock Preparation: Recombinant human FGFR1 and Poly E4Y are both diluted in assay buffer.
Enzymatic Reaction • In a 96-well plate, Add 5 μL of compound or control. (positive control: 5 μL of 5% DMSO; negative control: 5 μL of 500 mM EDTA) into desired wells; • Add 10 μL of Enzyme/Substrate stock into each well; • Add 10 μL of ATP Diluents to initiate the enzyme reaction and votex the plate immediately on a plate shaker; • For the wells to make standard curve, add 5 μL of 5% DMSO, 10 μL of assay buffer and 10 μL of ATP standard curve stock. • Incubate the plate for 45 min at 28[…] on a plate shaker in a low speed.
Excitation wavelength: 610 nm, Emission wavelength: 670 nm.
(§2) • [ADP] in Compound well represents the ADP concentration in compound well. • [ADP] in Positive control well represents the ADP concentration in 5% DMSO well • Conversion of mP value to ADP concentration is calculated based on the formula which determined by standard curve. And mP value is measured by following the instruction provided by BellBrook Labs. (www.bellbrooklabs.com). 6. IC50: calculated using XL-Fit 2.0 software.

For a further assay, the target named is Recombinant human FGFR2 (Homo sapiens, UniProt P21802). Kind of assay: Transcreener Kinase Assay of FGFR2. In kind it is biochemical. To be noted: read-out: FGFR2 (FP) IC50. The method, then:
Transcreener Kinase Assay of FGFR2
as §1, with “•” for “Prepare Solution •”, “FGFR2” for “FGFR1”, “buffer. The final concentration is 0.3 ng/μL for FGFR2 and 62.5 ng/μL for Poly E4Y. The mixture is being kept in ice before use; • Prepare ATP Diluents, 10 mM ATP is diluted in assay buffer, the final concentration is 25 μM; • Prepare ADP Diluents: diluted ADP (500 μM) in assay buffer, the final concentration is 25 μM; • Prepare ATP standard curve stock as following:” for “buffer.”
• In a 96-well plate, Add 5 μL of compound or control. (positive control: 5 μL of 5% DMSO; negative control: 5 μL of 500 mM EDTA) into desired wells; • Add 10 μL of Enzyme/Substrate stock into each well; • Add 10 μL of ATP Diluents to initiate the enzyme reaction and votex the plate immediately on a plate shaker; • For the wells to make standard curve, add 5 μL of 5% DMSO, 10 μL of assay buffer and 10 μL of ATP standard curve stock. • Incubate the plate for 45 min at 28[…] on a plate shaker in a low speed.
• Detection Mix Preparation: The mixture is made by dilution with MilliQ water; as following: ADP Alexa633 tracer (1:100), ADP antibody (1:158), and stop & detect buffer (1:10); • Tracer Only control Preparation: The mixture is made by dilution with MilliQ water; as following: ADP Alexa633 tracer (1:100), and stop & detect buffer (1:10) • No Tracer control Preparation: stop & detect buffer is diluted with MilliQ water; by 10 fold. • Add 25 μL of detection mix, Tracer Only control and No Tracer control into corresponding wells, respectively; • Incubate at 28 °C for 1 h, on a plate shaker in a low speed; • Measure florescence polarization (FP) on TECAN F500. Excitation wavelength: 610 nm, Emission wavelength: 670 nm.
as §2

The next assay concerns the target FGFR3 kinase (Homo sapiens, UniProt P22607). Kind of assay: Z-Lyte Kinase Assay of FGFR3. In kind it is biochemical. The method, then:
Z-Lyte Kinase Assay of FGFR3
The final concentrations are 1, 0.33, 0.11, 0.037, 0.012, 0.004, 0.0014, 0.00046 μM, and the final concentration of DMSO is 2%. • 3) Kinase/Peptide Mixture (P/K solution): Prepare Kinase/Peptide Mixture by diluting the kinase to 0.7 μg/ml and the Z-LYTE™ Tyr 4 peptide to 4 μM in 1.33× Kinase Buffer. Mix gently by pipetting. • 4) Phospho-peptide Solution (PP solution): Add 0.4 μl of Z-LYTE™ Tyr 4 Phospho-peptide to 99.6 μl of 1.33× Kinase Buffer. • 5) ATP Solution: Prepare ATP Solution by diluting the 10 mM of ATP in 1.33× Kinase Buffer to 300 uM. • 6) Development Solution: Dilute Development Reagent B with Development Buffer as 1:128.
Shake the plate for 30 Sec and centrifuge (1500 rpm, 1 min) • Seal the plate to protect from the light and incubate the plate for 1 hour at RT (25-30[…]) • 2) Development reaction • Add 5 μl of the Development solution to all wells • Shake the plate for 30 Sec and centrifuge (1500 rpm, 1 min) • Seal the plate to protect from the light and incubate the plate for 1 hour at RT (25-30[…]) • 3) Stop and read • Add 5 μl of the Stop reagent to all wells • Shake the plate for 30 Sec and centrifuge (1500 rpm, 1 min) • Measure the value of Coumarin (Ex400 nm, Em445 nm) and fluorescein (Ex400 nm, Em520 nm), respectively.
Inhibition rate(IR)=1−%Photest Cpd/%PhoC2
• determined with add-in software for Microsoft Excel, XLfit™ (version 2.0) from ID Business Solutions (Guildford, UK)

A further assay has as its system KG-1. Briefly: Cellular Proliferation Assay (Cell Counting Kit-8), KG-1. In kind it is cell-based. The settings on record: Homo sapiens, KG1 cells, 72 hours. As to the method:
(§3) Cellular Proliferation Assay
(§4) • KG-1 (ATCC Accession No. CCL-246), • SNU-16 (ATCC Accession No. CRL-5974), • RT-112 (ECACC Accession No. 85061106)
(§5) • FGFR related cancer cell proliferation is measured in 96-well plates using Cell Counting Kit-8 (Dojindo CK04-13). • Seed 30000 cells/well of KG1, 5000 cells/well of SNU16, and 1000 cells/well of RT112 in a volume of 100 μL/well in growth media. • After 24 hours, dilute the compound to 10, 3.3, 1.1, 0.37, 0.12, 0.04, 0.013, 0.004 μM, keeping the DMSO concentration at 5%. • Add 10 μL of 8-point compound series to the wells of culturing cells. • Incubate at 37° C. and 5% CO2 for 72 hours • Add 10 μL/well of CCkit8 and incubate at 37° C. and 5% CO2 for an hour • Detect the optical density of each well at 450 nm on Labsystems Multiskan K3.
(§6) • ODcompound well represents the optical density of cells treated with compound. • ODcell well represents the optical density of cells without compounds treatment. (only 0.5% DMSO) • ODcontrol well represents the optical density of culture media background
(§7) The concentration of compound providing 50% of proliferation inhibition was calculated using Excel Fit.
A general note: Formazan colour is commonly taken as a measure of viable cells.

The subject of the next assay is SNU-16. Kind of assay: Cellular Proliferation Assay (Cell Counting Kit-8), SNU-16. In kind it is cell-based. The settings on record: Homo sapiens, SNU-16 cells, 72 hours. As to the method: as §3, §4, §5, §6, §7

Sequence of Recombinant human FGFR2 (P21802 22-821): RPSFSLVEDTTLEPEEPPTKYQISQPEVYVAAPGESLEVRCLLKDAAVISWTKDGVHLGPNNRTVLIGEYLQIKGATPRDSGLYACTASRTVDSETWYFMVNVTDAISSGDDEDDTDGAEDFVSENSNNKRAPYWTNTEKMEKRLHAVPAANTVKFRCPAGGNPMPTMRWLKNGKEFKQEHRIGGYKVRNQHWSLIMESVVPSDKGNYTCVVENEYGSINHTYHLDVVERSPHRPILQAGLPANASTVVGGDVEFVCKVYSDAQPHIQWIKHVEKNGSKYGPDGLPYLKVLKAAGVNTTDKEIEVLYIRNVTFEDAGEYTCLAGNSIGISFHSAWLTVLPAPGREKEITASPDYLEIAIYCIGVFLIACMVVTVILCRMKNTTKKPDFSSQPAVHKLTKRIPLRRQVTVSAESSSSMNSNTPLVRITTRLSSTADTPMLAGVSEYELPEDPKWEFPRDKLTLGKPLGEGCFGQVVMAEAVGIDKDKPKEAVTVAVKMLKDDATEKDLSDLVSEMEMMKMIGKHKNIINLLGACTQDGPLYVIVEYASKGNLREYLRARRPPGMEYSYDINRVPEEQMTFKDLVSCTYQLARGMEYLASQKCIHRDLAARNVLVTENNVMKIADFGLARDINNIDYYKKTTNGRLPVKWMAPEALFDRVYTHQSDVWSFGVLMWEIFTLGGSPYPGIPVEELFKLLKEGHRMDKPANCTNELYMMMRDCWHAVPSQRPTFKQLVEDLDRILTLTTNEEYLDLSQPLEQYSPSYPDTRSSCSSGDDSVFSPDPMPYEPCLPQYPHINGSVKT
Sequence of FGFR3 kinase (P22607 23-806): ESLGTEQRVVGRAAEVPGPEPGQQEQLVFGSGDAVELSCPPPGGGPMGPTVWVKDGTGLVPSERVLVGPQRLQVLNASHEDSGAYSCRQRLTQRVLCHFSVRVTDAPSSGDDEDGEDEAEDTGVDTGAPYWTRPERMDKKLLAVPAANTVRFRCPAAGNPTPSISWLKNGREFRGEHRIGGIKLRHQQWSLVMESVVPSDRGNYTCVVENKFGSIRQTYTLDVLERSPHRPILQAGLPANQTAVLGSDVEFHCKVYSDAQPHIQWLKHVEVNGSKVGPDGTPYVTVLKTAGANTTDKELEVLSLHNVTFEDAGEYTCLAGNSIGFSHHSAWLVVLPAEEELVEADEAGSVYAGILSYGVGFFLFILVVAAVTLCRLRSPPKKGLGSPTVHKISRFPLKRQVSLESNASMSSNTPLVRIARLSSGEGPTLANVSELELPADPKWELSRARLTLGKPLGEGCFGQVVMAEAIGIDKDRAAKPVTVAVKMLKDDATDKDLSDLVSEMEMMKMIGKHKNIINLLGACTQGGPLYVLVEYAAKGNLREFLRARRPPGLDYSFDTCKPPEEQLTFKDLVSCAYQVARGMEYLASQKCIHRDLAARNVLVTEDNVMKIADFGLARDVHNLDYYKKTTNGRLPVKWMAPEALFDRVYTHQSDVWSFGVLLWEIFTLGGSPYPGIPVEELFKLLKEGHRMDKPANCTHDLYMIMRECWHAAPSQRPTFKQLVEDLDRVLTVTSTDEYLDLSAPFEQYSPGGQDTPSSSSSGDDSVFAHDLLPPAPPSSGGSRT
Sequence of Recombinant human FGFR1 (P11362 22-822): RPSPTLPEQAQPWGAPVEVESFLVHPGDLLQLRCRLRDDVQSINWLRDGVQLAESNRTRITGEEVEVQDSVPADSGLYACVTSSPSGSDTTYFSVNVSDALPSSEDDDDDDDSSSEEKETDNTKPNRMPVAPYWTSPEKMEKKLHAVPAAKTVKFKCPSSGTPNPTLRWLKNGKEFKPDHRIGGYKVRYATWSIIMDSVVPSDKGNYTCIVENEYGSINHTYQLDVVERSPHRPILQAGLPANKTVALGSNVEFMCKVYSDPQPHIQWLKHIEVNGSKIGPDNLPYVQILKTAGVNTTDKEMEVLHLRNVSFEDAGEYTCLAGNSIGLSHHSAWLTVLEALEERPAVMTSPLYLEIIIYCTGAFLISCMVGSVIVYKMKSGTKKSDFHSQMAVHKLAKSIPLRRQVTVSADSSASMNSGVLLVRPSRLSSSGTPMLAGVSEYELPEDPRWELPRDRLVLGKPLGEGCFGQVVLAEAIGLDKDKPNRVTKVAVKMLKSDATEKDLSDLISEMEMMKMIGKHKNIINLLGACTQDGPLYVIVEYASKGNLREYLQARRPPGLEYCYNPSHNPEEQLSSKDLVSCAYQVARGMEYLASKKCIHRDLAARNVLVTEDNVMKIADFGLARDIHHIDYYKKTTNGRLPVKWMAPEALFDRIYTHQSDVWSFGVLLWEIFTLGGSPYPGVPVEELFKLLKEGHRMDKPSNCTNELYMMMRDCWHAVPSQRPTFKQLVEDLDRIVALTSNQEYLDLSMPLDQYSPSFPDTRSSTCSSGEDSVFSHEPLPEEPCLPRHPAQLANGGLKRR

`CONC(=O)c1cc(CCc2cnc(Nc3ccc(N4CCN(C)[C@H](C)C4)cc3)nc2)cc(OC)c1` [Compound 40]: the IC50 came to 12 nM on Recombinant human FGFR1; 10 nM on Recombinant human FGFR2; 39 nM at FGFR3 kinase; 31 nM in the assay with KG-1; 48 nM in the assay on SNU-16.
`CCN1CCN(c2ccc(Nc3ncc(CCc4cc(C(=O)NOC)cc(OC)c4C)cn3)cc2)CC1` [Compound 52]: the half-maximal inhibitory concentration (IC50) at Recombinant human FGFR1 stood at 1 nM; at Recombinant human FGFR2, 2 nM; against FGFR3 kinase it was 5 nM; with KG-1 it was 4 nM; with SNU-16 it was 5 nM.
For `CCN1CCN(c2ccc(Nc3ncc(CCc4cc(C(=O)NOC)cc5occc45)cn3)cc2)CC1` [Compound 5], the IC50 at Recombinant human FGFR1 turned out to be 13 nM; at Recombinant human FGFR2, 12 nM; at FGFR3 kinase, 47 nM; in the assay with KG-1, 24 nM; with SNU-16 it was 56 nM.
As to `CNC(=O)c1cc(CCc2cnc(Nc3ccc4nnnn4c3)nc2)c(F)c(OC)c1` [Compound 96], the IC50 came to 63 nM on Recombinant human FGFR1; 44 nM on Recombinant human FGFR2; 119 nM against FGFR3 kinase; 161 nM with KG-1; 150 nM with SNU-16.
For the compound `CCN1CCN(c2ccc(Nc3ncc(CCc4cc(OC)cc(C(=O)NOC)c4)cn3)cc2)C[C@H]1C` [Compound 48], the IC50 at Recombinant human FGFR1 came out at 5 nM; on Recombinant human FGFR2, 5 nM; at FGFR3 kinase, 15 nM; in the assay with KG-1 it was 11 nM; with SNU-16, 16 nM.
Regarding `CONC(=O)c1cc(CCc2cnc(Nc3cnn(C)c3)nc2)cc(OC)c1` [Compound 23], the IC50 worked out at 9 nM on Recombinant human FGFR1; 6 nM at Recombinant human FGFR2; 13 nM against FGFR3 kinase; 29 nM in the assay with KG-1; 18 nM with SNU-16.
The matching figures for `CONC(=O)c1cc(CCc2cnc(Nc3ccc(N4CCOCC4)cc3)nc2)cc(OC)c1` [Compound 37]: 10 nM, 7 nM, 16 nM, 46 nM and 44 nM.
Take `CONC(=O)c1cc(CCc2cnc(Nc3cnn(C)c3)nc2)c(F)c(OC)c1` [Compound 29]: the concentration for half-maximal inhibition (IC50) turned out to be 3 nM on Recombinant human FGFR1; 2 nM at Recombinant human FGFR2; 7 nM on FGFR3 kinase; 5 nM in the assay with KG-1; 5 nM with SNU-16.
As to `CCN1CCN(c2ccc(Nc3ncc(CCc4cc(OC)cc(C(=O)NOCCO)c4)cn3)cc2)CC1` [Compound 20, 3-(2-(2-((4-(4-ethylpiperazin-1-yl)phenyl)amino)pyrimidin-5-yl)ethyl)-N-(2-hydroxyethoxy)-5-methoxybenzamide], the IC50 at Recombinant human FGFR1 came to 43 nM; at Recombinant human FGFR2, 34 nM; against FGFR3 kinase, 128 nM; in the assay with KG-1, 589 nM; in the assay on SNU-16, 340 nM.
`CCN1CCN(c2ccc(Nc3ncc(CCc4cc(OC)cc(C(=O)NOC)c4)cn3)cc2)CC1` [Compound 17]: the IC50 at Recombinant human FGFR1 worked out at 4 nM; on Recombinant human FGFR2, 6 nM; on FGFR3 kinase, 9 nM; in the assay with KG-1, 9 nM; with SNU-16, 12 nM.
On to `CNC(=O)c1cc(CCc2cnc(Nc3ccnnc3)nc2)c(F)c(OC)c1` [Compound 61], for which the IC50 worked out at 54 nM on Recombinant human FGFR1; 17 nM at Recombinant human FGFR2; 62 nM against FGFR3 kinase; 400 nM with KG-1; 158 nM in the assay on SNU-16.
As for `CONC(=O)c1cc(CCc2cnc(Nc3ccc(Cl)cc3)nc2)cc(OC)c1` [Compound 113], the IC50 on Recombinant human FGFR1 worked out at 48 nM; on Recombinant human FGFR2, 18 nM; at FGFR3 kinase it was 146 nM; with KG-1, 148 nM; with SNU-16, 89 nM.
Take `CONC(=O)c1cc(CCc2cnc(Nc3ccc(N4C[C@@H](C)N[C@@H](C)C4)cc3)nc2)cc(OC)c1` [Compound 41]: the half-maximal inhibitory concentration (IC50) came out at 4 nM at Recombinant human FGFR1; 6 nM at Recombinant human FGFR2; 9 nM on FGFR3 kinase; 38 nM in the assay with KG-1; 24 nM in the assay on SNU-16.
For `CCN1CCN(c2ccc(Nc3ncc(/C=C/c4cc(OC)cc(C(=O)NOC)c4)cn3)cc2)CC1` [Compound 16], the concentration for half-maximal inhibition (IC50) at Recombinant human FGFR1 is 12 nM; on Recombinant human FGFR2, 8 nM; against FGFR3 kinase, 16 nM; with KG-1, 13 nM; with SNU-16, 17 nM.
As to `CCN1CCN(c2ccc(Nc3ccc(CCc4cc(C(=O)NOC)cc(OC)c4C)cn3)cc2)CC1` [Compound 47], the IC50 was 6 nM on Recombinant human FGFR1; 6 nM at Recombinant human FGFR2; 8 nM at FGFR3 kinase; 63 nM with KG-1; 74 nM in the assay on SNU-16.
As for `CCn1cc(Nc2ccc(OCc3cc(C(=O)NC)cc(OC)c3F)cn2)cn1` [Compound 187], the IC50 on Recombinant human FGFR1 is 271 nM; at Recombinant human FGFR2 it was 132 nM; at FGFR3 kinase, 227 nM.
In the case of `CCN1CC[C@@H](n2cc(Nc3ncc(CCc4cc(C(=O)NC)cc(OC)c4F)cn3)cn2)C1` [Compound 170], the half-maximal inhibitory concentration (IC50) on Recombinant human FGFR1 stood at 99 nM; at Recombinant human FGFR2, 87 nM; against FGFR3 kinase, 132 nM.
